Patent EP2975030B1, “DIHYDROPYRIDAZINE-3,5-DIONE DERIVATIVE” (Chugai Seiyaku Kabushiki Kaisha, priority 2013, dated 2014)

System: rat small-intestinal brush border membrane vesicles
Experiment: Inhibitory effect on 33PO4 uptake into rat small-intestinal brush border membrane vesicles (rapid filtration method)
Format: biochemical, Wistar female rat
Conditions: 1 µM test compound; 33PO4 uptake into rat small-intestinal BBMVs, 60 seconds
Summary of the method: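 33PO4 uptake into rat small-intestinal brush border membrane vesicles measured by rapid filtration. Reactions were stopped with ice-cold buffer (110 mM NaCl, 1 mM KH2PO4, 10 mM HEPES pH 7.5), filtered and washed. Vesicle-associated radioactivity was counted by liquid scintillation.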

Compound	Rate of uptake inhibition (%) (1 µM)
CSc1ccc(-c2cc(C(F)(F)F)ccc2NC(=O)C2=C(O)[C@@]3(C)CCCN3N(Cc3ccc(C#CCCCCC(=O)O)c(F)c3F)C2=O)cn1 [Example 117, 7-[4-[[(4aR)-4-Hydroxy-4a-methyl-3-[[2-(6-methylsulfanylpyridin-3-yl)-4-(trifluoromethyl)phenyl]carbamoyl]-2-oxo-6,7-dihydro-5H-pyrrolo[1,2-b]pyridazin-1-yl]methyl]-2,3-difluorophenyl]hept-6-ynoate]	78%
COCCN(C)CCNc1ccc(CN2C(=O)C(C(=O)Nc3ccc(C(F)(F)F)cc3-c3cc(C(F)(F)F)ncn3)=C(O)C3(CCCC3)N2C)c(F)c1F [Example 417, 7-(2,3-Difluoro-4-((2-((2-methoxyethyl)(methyl)amino)ethyl)amino)benzyl)-10-hydroxy-6-methyl-8-oxo-N-(4-(trifluoromethyl)-2-(6-(trifluoromethyl)pyrimidin-4-yl)phenyl)-6,7-diazaspiro[4.5]dec-9-ene-9-carboxamide]	48%
COc1cccc(-c2cc(C(F)(F)F)ccc2NC(=O)C2=C(O)[C@@]3(C)CCCN3N(Cc3ccc(C#CCOCCCCO)c(F)c3F)C2=O)c1OC [Example 123, (4aR)-1-[[2,3-Difluoro-4-[3-(4-hydroxybutoxy)prop-1-ynil]phenyl]methyl]-N-[2-(2.3-dimethoxyphenyl)-4-(trifluoromethyl)phenyl]-4-hydroxy-4a-methyl-2-oxo-6,7-dihydro-5H-pyrrolo[1,2-b]pyridazine-3-carboxamide]	87%
CN1N(Cc2ccc(OCCOCCOCCOCCNC(=O)[C@@H](O)[C@H](O)[C@@H](O)[C@@H](O)CO)c(F)c2F)C(=O)C(C(=O)Nc2ccc(C(F)(F)F)cc2-c2cc(C(F)(F)F)ncn2)=C(O)C12CCCC2 [Example 428, 7-[[2,3-Difluoro-4-[2-[2-[2-[2-[[(2S,3R,4S,5S)-2,3,4,5,6-pentahydroxyhexanoyl]amino]ethoxy]ethoxy]ethoxy]ethoxy]phenyl]methyl]-10-hydroxy-6-methyl-8-oxo-N-[4-(trifluoromethyl)-2-[6-(trifluoromethyl)pyrimidin-4-yl]phenyl]-6,7-diazaspiro[4.5]dec-9-ene-9-carboxamide]	14%
CSc1ccc(-c2cc(C(F)(F)F)ccc2NC(=O)C2=C(O)C(C)(C)N(C)N(Cc3cccc(F)c3F)C2=O)cn1 [Example 310]	63%
C[C@]12CCCN1N(Cc1c(F)cc(C#CCCCCCOC[C@H](O)[C@@H](O)CO)cc1F)C(=O)C(C(=O)Nc1ccc(C(F)(F)F)cc1-c1ccc(C(F)(F)F)nc1)=C2O [Example 124]	81%
CN1[C@@H](C(C)(C)C)C(O)=C(C(=O)Nc2ccc(Cl)cc2-c2cc(C#N)ncn2)C(=O)N1Cc1ccc(OCCN2CCOCC2)c(F)c1F [Example 272]	43%
COCCN(C)CCN(c1ccc(CN2C(=O)C(C(=O)Nc3ccc(C(F)(F)F)cc3-c3cc(C(F)(F)F)ncn3)=C(O)C3(CCCC3)N2C)c(F)c1F)C(C)C [Example 445]	29%
COC1(C)CN(CCOc2ccc(CN3C(=O)C(C(=O)Nc4ccc(C(F)(F)F)cc4-c4cc(C(F)(F)F)ncn4)=C(O)C4(CCC4)N3C)c(F)c2F)C1 [Example 356]	58%
CN1N(Cc2ccc(OCCCOCCO)c(F)c2F)C(=O)C(C(=O)Nc2ccc(C(F)(F)F)cc2-c2cc(C(F)(F)F)ncn2)=C(O)C12CCCC2 [Example 395]	39%
CN1N(Cc2ccc(OCCCCCC(=O)O)c(F)c2F)C(=O)C(C(=O)Nc2ccc(C(F)(F)F)cc2-c2cc(C(F)(F)F)ncn2)=C(O)C12CCCC2 [Example 334]	22%
CN1N(Cc2ccc(OCCCCOCCCO)c(F)c2F)C(=O)C(C(=O)Nc2ccc(C(F)(F)F)cc2-c2cc(C(F)(F)F)ncn2)=C(O)C12CCCC2 [Example 399]	42%
C[C@]12CCCN1N(Cc1c(Cl)cc(OCCN3CCOCC3)cc1Cl)C(=O)C(C(=O)Nc1ccc(C(F)(F)F)nc1-c1ccc(C(F)(F)F)nc1)=C2O.Cl [Example 148, (4aR)-1-[[2,6-Dichloro-4-(2-morpholin-4-ylethoxy)phenyl]methyl]-4-hydroxy-4a-methyl-2-oxo-N-[6-(trifluoromethyl)-2-[6-(trifluoromethyl)pyridin-3-yl]pyridin-3-yl]-6,7-dihydro-5H-pyrrolo[1,2-b]pyridazine-3-carboxamide hydrochloride]	75%
C[C@]12CCCN1N(Cc1ccc(C#N)cc1)C(=O)C(C(=O)Nc1cc(F)c(Br)c(F)c1)=C2O [Example 222]	97%
CN1N(Cc2ccc(OC(C)(C)CN3CCOCC3)c(F)c2F)C(=O)C(C(=O)Nc2ccc(C(F)(F)F)cc2-c2cc(C(F)(F)F)ncn2)=C(O)C12CCC2 [Example 407, 6-[[2,3-Difluoro-4-(2-methyl-1-morpholin-4-ylpropan-2-yl)oxyphenyl]methyl]-9-hydroxy-5-methyl-7-oxo-N-[4-(trifluoromethyl)-2-[6-(trifluoromethyl)pyrimidin-4-yl]phenyl]-5,6-diazaspiro[3.5]non-8-ene-8-carboxamide]	30%
C[C@]12CCCN1N(Cc1cccc(OC(F)F)c1)C(=O)C(C(=O)Nc1ccc(C(F)(F)F)cc1-c1cc(C(F)(F)F)ncn1)=C2O [Example 177]	85%
CN(CCOc1ccc(CN2C(=O)C(C(=O)Nc3ccc(C(F)(F)F)cc3-c3cc(C(F)(F)F)ncn3)=C(O)C3(CCC3)N2C)c(F)c1F)C1COC1 [Example 402, 6-(2,3-Difluoro-4-(2-(methyl(oxetan-3-yl)amino)ethoxy)benzyl)-9-hydroxy-5-methyl-7-oxo-N-(4-(trifluorometyl)-2-(6-(trifluoromtthyl)pyrimidin-4-yl)phenyl)-5,6-diazaspiro[3.5]non-8-ene-8-carboxamide]	54%

Compound	Rate of uptake inhibition (%) (1 µM)
CN1N(Cc2ccc(C#CCN3CCOCC3)c(F)c2F)C(=O)C(C(=O)Nc2ccc(Cl)cc2-c2cc(C(F)(F)F)ncn2)=C(O)C1(C)C [Example 316, N-[4-Chloro-2-[6-(trifluoromethyl)pyrimidin-4-yl]phenyl]-2-[[2,3-difluoro-4-(3-morpholin-4-ylprop-1-ynil)phenyl]methyl]-5-hydroxy-1,6,6-trimethyl-3-oxopyridazine-4-carboxamide]	64%
Cc1cc(NC(=O)C2=C(O)[C@@H]3CCCN3N(Cc3cccc(F)c3)C2=O)c(C(F)(F)F)o1 [Example 1, (4aS)-1-[(3-Fluorophenyl)methyl]-4-hydroxy-N-[5-methyl-2-(trifluoromethyl)furan-3-yl]-2-oxo-4a,5,6,7-tetrahydropyrrolo[1,2-b]pyridazine-3-carboxamide]	28%
C[C@]12CCCN1N(Cc1cccc(F)c1)C(=O)C(C(=O)Nc1ccc(C(F)(F)F)cc1-c1ccc(C(F)(F)F)nc1)=C2O [Example 206]	76%
(4aS)-1-[(2,3-Difluorophenyl)methyl]-6,6-difluoro-4-hydroxy-N-[5-methyl-2-(trifluoromethyl)furan-3-yl]-2-oxo-5,7-dihydro-4aH-pyrrolo[1,2-b]pyridazine-3-carboxamide [Example 5]	54%
COc1ccc(OC)c(CN2C(=O)C(C(=O)Nc3ccc(C(F)(F)F)cc3-c3ccc(C(F)(F)F)nc3)=C(O)[C@@]3(C)CCCN23)c1 [Example 176]	75%
CN1N(Cc2ccc(OCCN3CCOC(=O)C3)c(F)c2F)C(=O)C(C(=O)Nc2ccc(C(F)(F)F)cc2-c2cc(C(F)(F)F)ncn2)=C(O)C12CCC2 [Example 337, 8-[[2,3-Difluoro-4-[2-(2-oxomorpholin-4-yl)ethoxy]phenyl]methyl]1-5-hydroxy-9-methyl-7-oxo-N-[4-(trifluoromethyl)-2[6-(trifluoromethyl)pyrimidin-4-yl]phenyl]-8,9-diazaspiro[3.5]non-5-ene-6-carboxamide]	47%
COC[C@@H]1CCCN1CCOc1ccc(CN2C(=O)C(C(=O)Nc3ccc(C(F)(F)F)cc3-c3cc(C(F)(F)F)ncn3)=C(O)C3(CCCC3)N2C)c(F)c1F [Example 375]	31%
Cc1cccc(CN2C(=O)C(C(=O)Nc3ccc(C(F)(F)F)cc3-c3cc(C(F)(F)F)ncn3)=C(O)[C@@]3(C)CCCN23)c1F [Example 215]	86%
C[C@]12CCCN1N(Cc1cccc(F)c1F)C(=O)C(C(=O)Nc1cc(F)c(Br)c(F)c1)=C2O [Example 29]	75%
COc1cccc(-c2cc(C(F)(F)F)ccc2NC(=O)C2=C(O)[C@@]3(C)CCCN3N(Cc3ccc(C#CCOCCOCCOCCO)c(F)c3F)C2=O)c1OC [Example 136]	80%
C[C@]12CCCN1N(Cc1ccc(F)cc1F)C(=O)C(C(=O)Nc1cc(F)c(Br)c(F)c1)=C2O [Example 192]	88%
C[C@]12CCCN1N(Cc1ccccc1C#N)C(=O)C(C(=O)Nc1cc(F)c(Br)c(F)c1)=C2O [Example 218]	82%
CN1N(Cc2ccc(OCCCOC[C@H](O)CO)c(F)c2F)C(=O)C(C(=O)Nc2ccc(C(F)(F)F)cc2-c2cc(C(F)(F)F)ncn2)=C(O)C12CCCC2 [Example 392]	47%
1-[(3-Fluorophenyl)methyl]-4-hydroxy-4a-methyl-N-[5-methyl-2-(trifluoromethyl)furan-3-yl]-2-oxo-5,6,7,8-tetrahydropyrido[1,2-b]pyridazine-3-carboxamide [Example 18]	12%
CN1[C@@H](C(C)(C)C)C(O)=C(C(=O)Nc2cnc(C(F)(F)F)nc2-c2ccc(C(F)(F)F)nc2)C(=O)N1Cc1ccc(OCCN2CCOCC2)c(F)c1F [Example 273]	41%
Cc1cc(NC(=O)C2=C(O)[C@@H]3CCCCN3N(Cc3c(F)c(F)cc4cc[nH]c34)C2=O)c(C(F)(F)F)o1 [Example 17, (4aS)-1-[(5,6-Difluoro-1H-indol-7-yl)methyl]-4-hvdroxy-N-[5-methyl-2-(trifluoromethyl)furan-3-yl]-2-oxo-5,6,7,8-tetrahydro-4aH-pyrido[1,2-b]pyridazine-3-carboxamide]	33%
